Test [1] relates to AN3_CA. The test is described as follows: CellTiterblue viability, 72 hr, AN3_CA. As to conditions: Homo sapiens, AN3-CA, AN3_CA cells. Type of test: cell-based. As to the method: (§1) A number of studies were performed to analyze the consequences of tyrosine kinase inhibition in cell lines. To do this, 1000 cells are seeded in 27 μl/well in 384-well microplates, which are then placed in a humidified CO2 incubator at 37° C. overnight. The next day, 3 μl/well of 10× concentrated drug is added and the plates are returned to the incubator for 72 hr. After 72 hr incubation, plates are removed and […] CellTiterblue (Promega) viability reagent is added. Plates are returned to the incubator for 3 hr, after which it is fluorescence measurements are read on the Victor X3 plate reader (Perkin Elmer). Data are analyzed using Excel (Microsoft), and GI50 values are determined using Prism (Graphpad).

The target of test [2] is T1, FGFR1 kinase (Homo sapiens, UniProt P11362).
T1 construct: purchased Millipore (KinaseProfiler Service)
T1 sequence (P11362 22-822): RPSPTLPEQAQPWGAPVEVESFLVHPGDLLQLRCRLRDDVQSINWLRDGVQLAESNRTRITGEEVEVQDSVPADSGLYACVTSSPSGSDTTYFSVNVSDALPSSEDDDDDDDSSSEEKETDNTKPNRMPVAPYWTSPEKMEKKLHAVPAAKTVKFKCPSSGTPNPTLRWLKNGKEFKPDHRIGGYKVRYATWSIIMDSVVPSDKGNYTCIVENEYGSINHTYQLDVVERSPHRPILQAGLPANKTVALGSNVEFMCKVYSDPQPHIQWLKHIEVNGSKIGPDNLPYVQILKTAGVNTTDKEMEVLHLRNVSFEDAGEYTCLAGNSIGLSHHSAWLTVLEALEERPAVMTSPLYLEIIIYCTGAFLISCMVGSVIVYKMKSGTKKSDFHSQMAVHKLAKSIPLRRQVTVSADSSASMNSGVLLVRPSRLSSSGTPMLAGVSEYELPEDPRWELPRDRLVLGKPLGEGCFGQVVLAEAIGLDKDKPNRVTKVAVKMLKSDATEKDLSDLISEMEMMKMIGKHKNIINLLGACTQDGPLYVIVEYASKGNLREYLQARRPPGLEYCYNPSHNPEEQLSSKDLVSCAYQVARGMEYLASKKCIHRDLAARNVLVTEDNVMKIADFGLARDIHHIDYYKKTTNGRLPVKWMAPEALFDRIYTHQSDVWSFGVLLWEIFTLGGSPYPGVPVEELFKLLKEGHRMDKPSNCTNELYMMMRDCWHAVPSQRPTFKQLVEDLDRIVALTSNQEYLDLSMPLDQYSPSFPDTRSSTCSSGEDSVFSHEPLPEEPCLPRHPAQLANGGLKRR
The test is described as follows: KinaseProfiler kinase inhibition assay, FGFR1. Type of test: biochemical. As to conditions: 1 μM compound.

Test [3] concerns the target T2, Abl kinase (Homo sapiens, UniProt P00519).
T2 construct: purchased Millipore (KinaseProfiler Service)
Kind of test: KinaseProfiler kinase inhibition assay, Abl. Type of test: biochemical. To be noted: 1 μM compound.

For test [4], the target named is T3, Ret kinase (Homo sapiens, UniProt P07949).
T3 construct: purchased Millipore (KinaseProfiler Service)
T3 sequence (P07949 29-1114): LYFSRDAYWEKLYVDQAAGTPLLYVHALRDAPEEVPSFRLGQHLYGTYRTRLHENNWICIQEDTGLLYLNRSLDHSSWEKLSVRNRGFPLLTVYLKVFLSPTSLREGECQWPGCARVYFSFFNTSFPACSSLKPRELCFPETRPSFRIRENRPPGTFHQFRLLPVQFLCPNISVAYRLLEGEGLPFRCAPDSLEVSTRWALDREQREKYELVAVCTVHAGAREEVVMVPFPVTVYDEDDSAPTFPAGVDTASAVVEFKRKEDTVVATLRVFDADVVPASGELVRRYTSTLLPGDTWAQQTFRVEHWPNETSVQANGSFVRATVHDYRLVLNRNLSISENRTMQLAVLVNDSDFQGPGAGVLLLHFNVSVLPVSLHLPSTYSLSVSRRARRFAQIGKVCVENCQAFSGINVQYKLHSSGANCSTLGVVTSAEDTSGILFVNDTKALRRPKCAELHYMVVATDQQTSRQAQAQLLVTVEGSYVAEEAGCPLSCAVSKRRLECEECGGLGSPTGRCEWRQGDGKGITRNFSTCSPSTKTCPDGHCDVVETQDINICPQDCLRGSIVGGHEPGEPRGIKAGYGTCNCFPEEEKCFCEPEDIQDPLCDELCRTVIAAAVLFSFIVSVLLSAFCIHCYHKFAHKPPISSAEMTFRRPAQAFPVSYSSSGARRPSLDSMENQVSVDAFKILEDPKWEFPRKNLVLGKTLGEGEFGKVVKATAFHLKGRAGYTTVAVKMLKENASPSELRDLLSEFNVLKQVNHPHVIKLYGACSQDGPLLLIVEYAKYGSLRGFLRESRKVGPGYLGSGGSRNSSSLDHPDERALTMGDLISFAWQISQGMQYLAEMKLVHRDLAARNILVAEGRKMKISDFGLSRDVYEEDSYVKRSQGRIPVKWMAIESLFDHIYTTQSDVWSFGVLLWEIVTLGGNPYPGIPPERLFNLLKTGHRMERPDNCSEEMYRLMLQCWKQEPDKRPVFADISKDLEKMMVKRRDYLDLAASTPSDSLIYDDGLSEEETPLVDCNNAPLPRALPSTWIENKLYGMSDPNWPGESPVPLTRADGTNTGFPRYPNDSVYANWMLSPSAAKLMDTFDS
Kind of test: KinaseProfiler kinase inhibition assay, Ret. Format: biochemical. As to conditions: 1 μM compound.

Test [5] deals with T4, Alk kinase (Homo sapiens, UniProt Q9UM73).
T4 construct: purchased Millipore (KinaseProfiler Service)
The test is described as follows: KinaseProfiler kinase inhibition assay, Alk. To be noted: 1 μM compound. Type of test: biochemical.

Test [6] concerns the target T5, KDR kinase (Homo sapiens, UniProt P35968).
T5 construct: purchased Millipore (KinaseProfiler Service)
The test is described as follows: KinaseProfiler kinase inhibition assay, KDR. Format: biochemical. As to conditions: 1 μM compound.

Test [7] deals with T6, c-Src kinase (Homo sapiens, UniProt P12931).
T6 construct: purchased Millipore (KinaseProfiler Service)
T6 sequence (P12931 whole entry): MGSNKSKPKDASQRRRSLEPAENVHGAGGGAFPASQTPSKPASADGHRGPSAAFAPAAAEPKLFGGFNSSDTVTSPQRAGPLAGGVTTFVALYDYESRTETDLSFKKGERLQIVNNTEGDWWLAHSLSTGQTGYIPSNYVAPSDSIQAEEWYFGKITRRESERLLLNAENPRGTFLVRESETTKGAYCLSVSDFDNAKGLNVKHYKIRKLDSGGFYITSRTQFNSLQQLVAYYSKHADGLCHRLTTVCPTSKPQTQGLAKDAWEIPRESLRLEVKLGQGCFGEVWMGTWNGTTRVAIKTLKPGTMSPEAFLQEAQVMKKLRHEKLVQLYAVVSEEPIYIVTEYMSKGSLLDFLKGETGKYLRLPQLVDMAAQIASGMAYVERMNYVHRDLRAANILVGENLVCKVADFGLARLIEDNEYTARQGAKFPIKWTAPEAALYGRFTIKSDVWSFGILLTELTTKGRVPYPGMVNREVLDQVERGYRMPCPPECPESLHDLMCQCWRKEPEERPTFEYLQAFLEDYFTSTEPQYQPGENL
The test is described as follows: KinaseProfiler kinase inhibition assay, c-Src. As to conditions: 1 μM compound; read-out: % Inhibition @1 μM cSrc. Type of test: biochemical.

Test [8] addresses T7, Tie2 (Homo sapiens, UniProt Q02763).
T7 construct: purchased Millipore (KinaseProfiler Service)
The test is described as follows: KinaseProfiler kinase inhibition assay, Tie2. Type of test: biochemical. To be noted: 1 μM compound.

In test [9] the test system is KG1a. The test is described as follows: CellTiterblue viability, 72 hr, KG1a. Format: cell-based. To be noted: Homo sapiens, KG-1a, KG1a cells. As to the method:
as §1
Background: The colour change of resazurin is a common sign of viable cells or microbes.

Test [10] has as its system Kato III. The test is described as follows: CellTiterblue viability, 72 hr, Kato III. Type of test: cell-based. As to conditions: Homo sapiens, Kato III cells. How it is done: as §1
Test [11] concerns RT112. Kind of test: CellTiterblue viability, 72 hr, RT112. Format: cell-based. As to conditions: Homo sapiens, RT-112, RT112 cells. As to the method: as §1
In test [12] the test system is MDA-MB134. Kind of test: CellTiterblue viability, 72 hr, MDA-MB134. To be noted: MDA-MB134 cells. Format: cell-based. How it is done: as §1

Molecules are shown by their SMILES.

A word on the GI50: it is the concentration giving 50% growth inhibition. Low values mean more potent growth inhibition, high ones less potent growth inhibition. The inhibition is the drop in the measured response relative to a control, in per cent.

T7 sequence (Q02763 23-1124): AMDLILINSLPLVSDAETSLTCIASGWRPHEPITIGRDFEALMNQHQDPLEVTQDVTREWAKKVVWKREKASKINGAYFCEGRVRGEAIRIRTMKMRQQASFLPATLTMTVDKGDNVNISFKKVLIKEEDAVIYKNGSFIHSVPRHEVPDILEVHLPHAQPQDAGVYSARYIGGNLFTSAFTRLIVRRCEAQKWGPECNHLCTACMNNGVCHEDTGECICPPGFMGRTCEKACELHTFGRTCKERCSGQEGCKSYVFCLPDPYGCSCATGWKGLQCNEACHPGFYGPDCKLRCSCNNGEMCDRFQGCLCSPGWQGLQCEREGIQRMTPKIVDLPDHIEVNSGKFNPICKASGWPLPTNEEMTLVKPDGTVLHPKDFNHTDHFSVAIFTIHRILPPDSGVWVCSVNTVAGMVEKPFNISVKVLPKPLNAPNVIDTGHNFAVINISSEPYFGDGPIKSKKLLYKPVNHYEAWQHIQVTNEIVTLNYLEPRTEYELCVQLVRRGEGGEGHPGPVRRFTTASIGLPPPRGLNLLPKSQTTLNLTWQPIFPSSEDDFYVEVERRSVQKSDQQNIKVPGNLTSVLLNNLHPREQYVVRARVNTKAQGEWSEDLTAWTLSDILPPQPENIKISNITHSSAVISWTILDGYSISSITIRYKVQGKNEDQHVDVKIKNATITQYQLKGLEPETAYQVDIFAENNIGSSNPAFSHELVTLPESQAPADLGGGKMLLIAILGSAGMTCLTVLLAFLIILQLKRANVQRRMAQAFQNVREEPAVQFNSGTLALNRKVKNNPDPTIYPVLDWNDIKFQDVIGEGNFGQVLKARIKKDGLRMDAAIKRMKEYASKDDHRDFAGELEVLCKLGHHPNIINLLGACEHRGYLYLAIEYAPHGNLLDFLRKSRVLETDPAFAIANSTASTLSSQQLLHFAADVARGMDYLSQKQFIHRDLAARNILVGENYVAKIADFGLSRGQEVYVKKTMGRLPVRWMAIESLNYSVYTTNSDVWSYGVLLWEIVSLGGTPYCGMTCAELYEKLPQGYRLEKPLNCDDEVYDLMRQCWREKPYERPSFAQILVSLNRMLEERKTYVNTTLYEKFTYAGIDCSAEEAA
T2 sequence (P00519 whole entry): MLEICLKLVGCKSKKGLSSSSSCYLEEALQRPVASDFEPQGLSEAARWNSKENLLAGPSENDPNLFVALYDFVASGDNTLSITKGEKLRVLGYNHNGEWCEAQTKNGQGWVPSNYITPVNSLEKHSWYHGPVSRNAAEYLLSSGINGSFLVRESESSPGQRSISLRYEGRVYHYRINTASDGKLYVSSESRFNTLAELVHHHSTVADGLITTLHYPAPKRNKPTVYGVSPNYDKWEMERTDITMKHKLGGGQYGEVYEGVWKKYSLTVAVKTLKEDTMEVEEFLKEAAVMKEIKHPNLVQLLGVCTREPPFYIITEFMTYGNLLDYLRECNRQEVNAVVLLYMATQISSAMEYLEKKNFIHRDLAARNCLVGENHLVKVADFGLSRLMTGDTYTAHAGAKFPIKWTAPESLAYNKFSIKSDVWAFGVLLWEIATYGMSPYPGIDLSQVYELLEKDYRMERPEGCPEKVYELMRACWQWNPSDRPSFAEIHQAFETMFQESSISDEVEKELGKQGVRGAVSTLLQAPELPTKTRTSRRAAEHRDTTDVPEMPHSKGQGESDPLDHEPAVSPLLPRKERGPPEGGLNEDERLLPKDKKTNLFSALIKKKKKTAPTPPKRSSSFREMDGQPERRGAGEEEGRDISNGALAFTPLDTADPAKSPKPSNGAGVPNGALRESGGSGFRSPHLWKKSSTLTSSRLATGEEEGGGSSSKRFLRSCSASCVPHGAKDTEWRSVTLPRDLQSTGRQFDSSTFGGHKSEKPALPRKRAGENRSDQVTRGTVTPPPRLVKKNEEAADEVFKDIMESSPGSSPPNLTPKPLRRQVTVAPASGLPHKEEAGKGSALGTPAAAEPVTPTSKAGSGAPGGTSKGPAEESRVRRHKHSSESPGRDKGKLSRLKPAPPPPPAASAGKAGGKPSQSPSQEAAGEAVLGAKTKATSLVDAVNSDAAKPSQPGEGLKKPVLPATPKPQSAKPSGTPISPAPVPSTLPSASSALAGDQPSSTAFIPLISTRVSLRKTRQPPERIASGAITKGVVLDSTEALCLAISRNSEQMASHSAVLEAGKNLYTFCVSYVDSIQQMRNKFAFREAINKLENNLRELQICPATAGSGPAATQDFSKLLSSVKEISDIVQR

For `Cc1cc2c(F)c(Oc3cc(Nc4ccccn4)ncn3)ccc2[nH]1` [Example 18], in [1], the 50% growth inhibitory concentration (GI50) is over 500 nM. Further, the inhibition at 1 µM in test [2] worked out at 87%; in test [3], 45%; in [4] it was 68%; in [5], 15%; in test [6] it was 92%; in test [7], 21%. In addition, the inhibition at 1 µM in [8] came out at 48%.

As to `Cc1cc2c(F)c(Oc3ncnc(Nc4ccc(N5CCN(C)CC5)cn4)c3N)ccc2[nH]1` [Compound 47], the GI50 in test [1], in test [9], in [10], in [11] and in test [12] was over 500 nM in each case. The inhibition at 1 µM in [2] is 34%; in [3], -6%; in test [4], -30%; in [5], -31%; in test [6] it was 1%; in [7], -6%. The inhibition at 1 µM in test [8] amounted to 11%.

For `CCN1CCN(c2ccc(Nc3ncnc(Oc4ccc5c(cc(C)n5C)c4F)c3C#N)cc2)CC1` [Compound 65], the concentration for 50% growth inhibition (GI50) in test [1] is over 500 nM; in test [9], over 500 nM; in [10] it was over 500 nM; in [11] it was over 500 nM; in test [12], 461 nM. The inhibition at 1 µM was 98% in [2]; -1% in test [3]; -19% in test [4]; -28% in test [5]; 8% in test [6]; 13% in [7]. Besides, the inhibition at 1 µM in test [8] was determined as 37%.

As to `CCOC(=O)c1cc(Nc2cc(Oc3ccc4[nH]c(C)cc4c3F)ncn2)n[nH]1` [Example 19], the concentration for 50% growth inhibition (GI50) in test [1] was over 500 nM. The inhibition at 1 µM in [2] was 59%; in test [3], 18%; in test [4], 48%; in test [5] it was -5%; in [6] it was 89%; in test [7], 8%. Also, the inhibition at 1 µM in test [8] stood at 13%.

With `COc1c(Nc2ccc(N3CCN(C)CC3)cc2)ncnc1Oc1ccc2[nH]c(C)cc2c1F` [Compound 43], the GI50 in [1], in [9], in test [10], in test [11] and in test [12] was over 500 nM throughout. For the same molecule, the inhibition at 1 µM in test [2] was 48%; in [3] it was -10%; in [4], -28%; in [5] it was -32%; in [6] it was -7%; in test [7], -4%. Besides, the inhibition at 1 µM in [8] came to 21%.

In [1], `Cc1cc2c(F)c(Oc3cc(Nc4cc(-c5ccccc5)[nH]n4)ncn3)ccc2[nH]1` [Example 4] displayed a concentration for 50% growth inhibition (GI50) of over 500 nM. The inhibition at 1 µM in test [2] stood at 59%; in [3] it was 23%; in [4], 27%; in test [5], 53%; in test [6], 98%; in [7], 36%. In addition, the inhibition at 1 µM in [8] came out at 30%.

In the case of `Cc1cc2c(F)c(Oc3cc(Nc4cccc(N5CCOCC5)c4)ncn3)ccc2[nH]1` [Example 8], the GI50 in test [1] and in test [10] was over 500 nM each time. Further, the inhibition at 1 µM in test [2] was found to be 97%; in [3], 11%; in test [4], 22%; in [5], 60%; in [6] it was 98%; in [7] it was 15%. In addition, the inhibition at 1 µM in [8] stood at 2%.

`CC(=O)Nc1ccc(Nc2cc(Oc3ccc4[nH]c(C)cc4c3F)ncn2)cc1` [Example 7]: the 50% growth inhibitory concentration (GI50) in [1] and in test [10] was over 500 nM in each case. In addition, the inhibition at 1 µM in [2] is 96%; in test [3] it was 8%; in test [4], -16%; in [5], 61%; in test [6], 98%; in test [7], 14%. Also, the inhibition at 1 µM in test [8] amounted to 4%.

Consider `CCN1CCN(c2ccc(Nc3ncnc(Oc4ccc5[nH]c(C)cc5c4F)c3F)nc2)CC1` [Example 29, N-(5-(4-ethylpiperazin-1-yl)pyridin-2-yl)-5-fluoro-6-((4-fluoro-2-methyl-1H-indol-5-yl)oxy)pyrimidin-4-amine], for which the 50% growth inhibitory concentration (GI50) in test [1], in [10] and in test [12] was over 500 nM each time. For the same molecule, the inhibition at 1 µM in test [2] is 92%; in [3] it was -7%; in test [4], -29%; in test [5], -48%; in test [6] it was 70%; in [7] it was 15%. The inhibition at 1 µM in test [8] worked out at 33%.

`Cc1cc2c(F)c(Oc3ncnc(Nc4ccc(N5CCN(C)CC5)cc4)c3F)ccc2[nH]1` [Example 24]: the figures for the 50% growth inhibitory concentration (GI50) in [1] and in test [10] were over 500 nM and 386 nM, respectively. Besides, the inhibition at 1 µM in [2] was 97%; in test [3] it was 0%; in test [4], -12%; in [5], 38%; in [6] it was 96%; in test [7], 11%. In addition, the inhibition at 1 µM in [8] was -6%.

Turning to `CC(=O)N1CCN(c2ccc(Nc3cc(Oc4cc(F)c5[nH]c(C)cc5c4F)ncn3)cc2)CC1` [Compound 50], the GI50 in [1] was over 500 nM; in test [10], 348 nM. Besides, the inhibition at 1 µM stood at 89% in test [2]; 36% in test [3]; 36% in test [4]; 63% in [5]; 97% in test [6]; 58% in [7]. Also, the inhibition at 1 µM in [8] came to 48%.

Consider `CNC(=O)c1ccc(Nc2cc(Oc3ccc4[nH]c(C)cc4c3F)ncn2)cc1` [Example 12], for which the 50% growth inhibitory concentration (GI50) in [1] and in test [10] was over 500 nM in each case. Besides, the inhibition at 1 µM in test [2] was 89%; in [3], 18%; in test [4], 21%; in test [5], 60%; in [6], 98%; in test [7], 30%. For the same molecule, in test [8], the inhibition at 1 µM came out at 20%.

Take `Cc1cc2c(F)c(Oc3ncnc(Nc4ccc(N5CCNCC5)cc4)c3F)ccc2[nH]1` [Example 28]: the concentration for 50% growth inhibition (GI50) in test [1] and in test [10] was over 500 nM each time. For the same molecule, the inhibition at 1 µM in [2] is 96%; in test [3], 12%; in [4] it was -15%; in [5], 62%; in test [6], 97%; in [7] it was 17%. Moreover, in [8], the inhibition at 1 µM is -7%.

In the case of `Cc1cc2c(F)c(Oc3cc(Nc4ccc(N5CCOCC5)cc4)ncn3)ccc2[nH]1` [Example 9], the GI50 in test [1] and in [10] was over 500 nM in each case. In addition, the inhibition at 1 µM in [2] is 75%; in test [3], 21%; in test [4] it was 35%; in test [5], 70%; in [6] it was 96%; in [7], 20%. Moreover, the inhibition at 1 µM in test [8] turned out to be 24%.

With `Cc1cc2c(F)c(Oc3ncnc(Nc4ccc(N5CCN(C)CC5)cn4)c3F)ccc2[nH]1` [Example 27], the concentration for 50% growth inhibition (GI50) in [1] and in [10] was over 500 nM in each case. The inhibition at 1 µM in test [2] was 85%; in test [3] it was 4%; in [4] it was -46%; in test [5], 35%; in [6], 79%; in [7], 11%. Further, the inhibition at 1 µM in [8] was -2%.

As to `Cc1cc2c(F)c(Oc3cc(Nc4cccc(N5CCN(C)CC5)c4)ncn3)ccc2[nH]1` [Example 13], the 50% growth inhibitory concentration (GI50) in test [1] is over 500 nM; in [10], 170 nM. The inhibition at 1 µM in test [2] stood at 98%; in test [3] it was 41%; in test [4], 61%; in test [5], 60%; in test [6], 98%; in test [7], 32%. Besides, in test [8], the inhibition at 1 µM came to 70%.

`CC(=O)N1CCN(c2ccc(Nc3ncnc(Oc4ccc5[nH]c(C)cc5c4F)c3F)cc2)CC1` [Example 26]: the GI50 in test [1] and in test [10] was over 500 nM each time. Further, the inhibition at 1 µM was 46% in test [2]; 7% in test [3]; -17% in test [4]; 68% in [5]; 96% in [6]; 16% in test [7]. In test [8], the inhibition at 1 µM is -11%.

The values are drawn from patent US10766879B2, “Pyrimidine derivatives as kinase inhibitors and their therapeutical applications” (NantBioScience, Inc., priority 2015, dated 2020).
